Experimental data taken from publication PMC11672292, “Discovery of Balasubramide Derivative with Tissue‐Specific Anti‐Inflammatory Activity Against Acute Lung Injury by Targeting VDAC1” (Advanced Science, 2024).
Like-named read-outs stand apart in the source and are kept apart here.

Experiments:
[1] = Pharmacokinetics and tissue distribution after single intravenous administration; format: in vivo, mouse; conditions: mice; for Vd: read-out: VdSS; for Kp: read-out: Tissues/plasma ratio
Protocol: Pharmacokinetic studies were performed as previously described.^[ [63] ^] Briefly, ICR mice were fasted without water for 16 h before drug administration and allowed access to food and water freely after administration. After given a single intravenous administration of (+)3C‐20 (10 mg kg^−1), mice were anesthetized with isoflurane, and blood samples were collected through jugular vein at different time points (0, 0.083, 0.25, 0.5, 1, 2, 4, 6, 8, 24 h), as well as at different time points (0.5, 2, 6, 24 h) mice were euthanized and brain, heart, liver, spleen, lung, and kidney were collected. Blood samples were collected in tubes containing sodium heparin and centrifuged at 5000 rpm at 4 °C for 10 min to prepare plasma, tissues were cleaned in prechilled saline and homogenized to be tested, and all samples were stored at […]. LC‐MS/MS was performed to determine the concentrations of (+)3C‐20 in the plasma and tissues of the mice and to calculate the related pharmacokinetic parameters, which were then used to investigate the pharmacokinetic characteristics and tissue distribution of (+)3C‐20 in mice.

PBMCs from ALI patients = test: Cytosolic mtDNA release in LPS-stimulated PBMCs from ALI patients; format: cell-based, human; conditions: 10 µM
Protocol: PBMCs isolation and stimulation were performed as previously described.^[ [40], [66] ^] Anticoagulated whole blood diluted equally with PBS was added to a 15 mL sterile centrifuge tube containing lymphocyte separation solution (#C0025, Beyotime, China), and centrifuged for 10 min at 2500 rpm. The layer of PBMCs at the plasma‐density gradient medium interface was transferred to a new sterile tube, dispersed with 10 mL DMEM, and centrifuged for 5 min at 800 rpm. The mononuclear cells at the bottom of the tube were resuspended in DMEM with 10% FBS at 5 × 10^5 cells/well in 24‐well plates. After discarding the supernatant, the PBMCs were incubated with DMSO or 10 µM (+)3C‐20 for 3 h in DMEM, stimulated with 100 ng mL^−1 LPS for another 3 h, and lysed with TRIzol reagent for total RNA extraction and following indicated experiments.

[2] = ICR, mouse, brain, iv, single i.v. 10 mg/kg, read-out: Concentration of (+)3C-20, Brain
[3] = ICR, mouse, heart, iv, single i.v. 10 mg/kg, read-out: Concentration of (+)3C-20, Heart
[4] = ICR, mouse, iv, single i.v. 10 mg/kg, Blood
[5] = ICR, mouse, iv, single i.v. 10 mg/kg, Brain
[6] = ICR, mouse, iv, single i.v. 10 mg/kg, Heart
[7] = ICR, mouse, iv, single i.v. 10 mg/kg, Kidney
[8] = ICR, mouse, iv, single i.v. 10 mg/kg, Liver
[9] = ICR, mouse, iv, single i.v. 10 mg/kg, Lung
[10] = ICR, mouse, iv, single i.v. 10 mg/kg, Plasma
[11] = ICR, mouse, iv, single i.v. 10 mg/kg, Spleen
[12] = ICR, mouse, kidney, iv, single i.v. 10 mg/kg, read-out: Concentration of (+)3C-20, Kidney
[13] = ICR, mouse, liver, iv, single i.v. 10 mg/kg, read-out: Concentration of (+)3C-20, Liver
[14] = ICR, mouse, lung, iv, single i.v. 10 mg/kg, read-out: Concentration of (+)3C-20, Lung
[15] = ICR, mouse, spleen, iv, single i.v. 10 mg/kg, read-out: Concentration of (+)3C-20, Spleen

O=C(CCc1ccc(C(F)(F)F)cc1)O[C@@H]1C(=O)NCCc2c([nH]c3ccccc23)[C@H]1c1ccc(C(F)(F)F)cc1 [(+)3C-20]
concentration at 0.5 h [1, 2]: 518 ± 66 ng/g | concentration at 2 h [1, 2]: 317 ± 86.1 ng/g | concentration at 6 h [1, 2]: 113 ± 11.8 ng/g | concentration at 0.5 h [1, 3]: 4510 ± 630 ng/g | concentration at 2 h [1, 3]: 1270 ± 335 ng/g | concentration at 6 h [1, 3]: 123 ± 12.7 ng/g | half-life ([1]; ICR, mouse, iv, i.v. 10 mg kg^−1, serum and plasma, read-out: average half-life (converted)): 5.3 ± 0.3 h | AUC(0-inf) [1, 4]: 3600 ng·h/mL | AUC(0-t) [1, 4]: 3470 ng·h/mL | C0 [1, 4]: 3950 ng/mL | Cmax [1, 4]: 2340 ng/mL | clearance [1, 4]: 46.4 mL/min/kg | k el [1, 4]: 3.36e-05 s⁻¹ | Vd [1, 4]: 12.3 L/kg | half-life ([1]; ICR, mouse, iv, single i.v. 10 mg/kg, Blood, read-out: t1/2 (converted)): 5.72 h | AUC(0-inf) [1, 5]: 3160 ng·h/mL | AUC(0-t) [1, 5]: 2980 ng·h/mL | C0 [1, 5]: 610 ng/mL | Cmax [1, 5]: 518 ng/mL | k el [1, 5]: 3.44e-05 s⁻¹ | Kp [1, 5]: 0.699 | half-life ([1]; ICR, mouse, iv, single i.v. 10 mg/kg, Brain, read-out: t1/2 (converted)): 5.57 h | AUC(0-inf) [1, 6]: 10200 ng·h/mL | AUC(0-t) [1, 6]: 9980 ng·h/mL | C0 [1, 6]: 6890 ng/mL | Cmax [1, 6]: 4510 ng/mL | k el [1, 6]: 0.000178 s⁻¹ | Kp [1, 6]: 2.34 | half-life ([1]; ICR, mouse, iv, single i.v. 10 mg/kg, Heart, read-out: t1/2 (converted)): 1.08 h | AUC(0-inf) [1, 7]: 3980 ng·h/mL | AUC(0-t) [1, 7]: 3780 ng·h/mL | C0 [1, 7]: 1960 ng/mL | Cmax [1, 7]: 1450 ng/mL | k el [1, 7]: 0.000134 s⁻¹ | Kp [1, 7]: 0.885 | half-life ([1]; ICR, mouse, iv, single i.v. 10 mg/kg, Kidney, read-out: t1/2 (converted)): 1.44 h | AUC(0-inf) [1, 8]: 15500 ng·h/mL | AUC(0-t) [1, 8]: 14900 ng·h/mL | C0 [1, 8]: 6050 ng/mL | Cmax [1, 8]: 5010 ng/mL | k el [1, 8]: 0.000145 s⁻¹ | Kp [1, 8]: 3.5 | half-life ([1]; ICR, mouse, iv, single i.v. 10 mg/kg, Liver, read-out: t1/2 (converted)): 1.33 h | AUC(0-inf) [1, 9]: 22200 ng·h/mL | AUC(0-t) [1, 9]: 22100 ng·h/mL | C0 [1, 9]: 11700 ng/mL | Cmax [1, 9]: 7780 ng/mL | k el [1, 9]: 5.39e-05 s⁻¹ | Kp [1, 9]: 5.17 | half-life ([1]; ICR, mouse, iv, single i.v. 10 mg/kg, Lung, read-out: t1/2 (converted)): 3.58 h | AUC(0-inf) [1, 10]: 4770 ng·h/mL | AUC(0-t) [1, 10]: 4700 ng·h/mL | C0 [1, 10]: 6280 ng/mL | Cmax [1, 10]: 4010 ng/mL | clearance [1, 10]: 35.2 mL/min/kg | k el [1, 10]: 3.97e-05 s⁻¹ | Vd [1, 10]: 6.1 L/kg | half-life ([1]; ICR, mouse, iv, single i.v. 10 mg/kg, Plasma, read-out: t1/2 (converted)): 4.88 h | AUC(0-inf) [1, 11]: 9840 ng·h/mL | AUC(0-t) [1, 11]: 9560 ng·h/mL | C0 [1, 11]: 6800 ng/mL | Cmax [1, 11]: 4370 ng/mL | k el [1, 11]: 0.000161 s⁻¹ | Kp [1, 11]: 2.24 | half-life ([1]; ICR, mouse, iv, single i.v. 10 mg/kg, Spleen, read-out: t1/2 (converted)): 1.2 h | concentration at 0.5 h [1, 12]: 5010 ± 516 ng/g | concentration at 2 h [1, 12]: 2840 ± 692 ng/g | concentration at 6 h [1, 12]: 299 ± 25.1 ng/g | concentration at 0.5 h [1, 13]: 4370 ± 1010 ng/g | concentration at 2 h [1, 13]: 1160 ± 434 ng/g | concentration at 6 h [1, 13]: 159 ± 51.7 ng/g | concentration at 0.5 h [1, 14]: 7780 ± 525 ng/g | concentration at 2 h [1, 14]: 2300 ± 281 ng/g | concentration at 6 h [1, 14]: 440 ± 50.4 ng/g | concentration at 24 h ([1]; ICR, mouse, lung, iv, single i.v. 10 mg/kg, 24 h, read-out: Concentration of (+)3C-20, Lung): 23.8 ± 9.4 ng/g | concentration at 0.5 h [1, 15]: 1450 ± 79.6 ng/g | concentration at 2 h [1, 15]: 595 ± 192 ng/g | concentration at 6 h [1, 15]: 98.7 ± 60 ng/g | lung tissue/plasma ratio in various organs ([1]; i.v. 10 mg kg^−1): highest | AUMC0-inf ([1]; single i.v. 10 mg/kg, Blood): 15950.5 h·h·ng·mL^-1 | AUMC0-t ([1]; single i.v. 10 mg/kg, Blood): 11638.5 h·h·ng·mL^-1 | MRTIV ([1]; single i.v. 10 mg/kg, Blood): 4.425 h | Tissues/plasma ratio ([1]; single i.v. 10 mg/kg, Blood): 0.734 | AUMC0-inf ([1]; single i.v. 10 mg/kg, Brain): 19922 h·h·ng·mL^-1 | AUMC0-t ([1]; single i.v. 10 mg/kg, Brain): 14234 h·h·ng·mL^-1 | MRTIV ([1]; single i.v. 10 mg/kg, Brain): 6.3 h | AUMC0-inf ([1]; single i.v. 10 mg/kg, Heart): 12176 h·h·ng·mL^-1 | AUMC0-t ([1]; single i.v. 10 mg/kg, Heart): 10724 h·h·ng·mL^-1 | MRTIV ([1]; single i.v. 10 mg/kg, Heart): 1.2 h | AUMC0-inf ([1]; single i.v. 10 mg/kg, Kidney): 6846 h·h·ng·mL^-1 | AUMC0-t ([1]; single i.v. 10 mg/kg, Kidney): 5185 h·h·ng·mL^-1 | MRTIV ([1]; single i.v. 10 mg/kg, Kidney): 1.72 h | AUMC0-inf ([1]; single i.v. 10 mg/kg, Liver): 26259 h·h·ng·mL^-1 | AUMC0-t ([1]; single i.v. 10 mg/kg, Liver): 21734 h·h·ng·mL^-1 | MRTIV ([1]; single i.v. 10 mg/kg, Liver): 1.69 h | AUMC0-inf ([1]; single i.v. 10 mg/kg, Lung): 54321 h·h·ng·mL^-1 | AUMC0-t ([1]; single i.v. 10 mg/kg, Lung): 50741 h·h·ng·mL^-1 | MRTIV ([1]; single i.v. 10 mg/kg, Lung): 2.45 h | AUMC0-inf ([1]; single i.v. 10 mg/kg, Plasma): 13980 h·h·ng·mL^-1 | AUMC0-t ([1]; single i.v. 10 mg/kg, Plasma): 11982 h·h·ng·mL^-1 | MRTIV ([1]; single i.v. 10 mg/kg, Plasma): 2.91 h | AUMC0-inf ([1]; single i.v. 10 mg/kg, Spleen): 12590 h·h·ng·mL^-1 | AUMC0-t ([1]; single i.v. 10 mg/kg, Spleen): 10456 h·h·ng·mL^-1 | MRTIV ([1]; single i.v. 10 mg/kg, Spleen): 1.28 h | cytosolic mtDNA release (PBMCs from ALI patients): markedly reduced
